In patent US6610677B2, “Pyrazole compounds useful as protein kinase inhibitors” (Vertex Pharmaceuticals Incorporated, priority 2000, dated 2003):
pKi: −log10 of the molar value. Like-named read-outs stand apart in the source and are kept apart here.

Experiments:
[1] = molecular target: T1, Aurora-2 (Homo sapiens, UniProt O14965); assay: Ki determination for the inhibition of Aurora-2 (coupled enzyme assay); format: biochemical; conditions: 70 nM Aurora-2, peptide LRRASLG, 30° C
T1 sequence (O14965 1-403): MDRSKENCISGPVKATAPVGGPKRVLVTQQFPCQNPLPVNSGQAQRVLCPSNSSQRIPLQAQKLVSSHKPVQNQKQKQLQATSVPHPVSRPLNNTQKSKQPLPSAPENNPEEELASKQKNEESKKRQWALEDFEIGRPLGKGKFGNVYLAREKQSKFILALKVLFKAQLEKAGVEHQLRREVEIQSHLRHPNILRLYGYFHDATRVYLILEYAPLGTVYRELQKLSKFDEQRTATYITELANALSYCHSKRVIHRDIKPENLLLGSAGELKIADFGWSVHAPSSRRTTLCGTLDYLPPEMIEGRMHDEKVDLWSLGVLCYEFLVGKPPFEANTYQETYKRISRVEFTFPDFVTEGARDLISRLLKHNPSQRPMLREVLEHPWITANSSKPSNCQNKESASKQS
Summary of the method: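 Ki came from reaction rates plotted against inhibitor concentration, with rates taken as A340 decrease over 5 min at 30° C. Enzyme (70 nM final) was added after 10 min compound preincubation; stock buffer held […], 800 μM LRRASLG, PK/LDH coupling, pH 7.5.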

[2] = molecular target: T2, human Src kinase (Homo sapiens, UniProt P12931); assay: SRC inhibition assay (radioactivity-based or spectrophotometric assay); format: biochemical; conditions: assay A or B not specified
T2 construct: full length recombinant human Src kinase; purchased Upstate Biotechnology 14-117; host or cells: baculo viral cells (baculovirus expression system)
Protocol: The compounds were evaluated as inhibitors of human Src kinase using either a radioactivity-based assay or spectrophotometric assay. The compounds were assayed as inhibitors of full length recombinant human Src kinase (from Upstate Biotechnology, cat. no. 14-117) expressed and purified from baculo viral cells. […] P-0275). […] In a typical assay, all the reaction components with the exception of ATP were pre-mixed and aliquoted into assay plate wells. Inhibitors dissolved in DMSO were added to the wells to give a final DMSO concentration of 2.5%. The assay plate was incubated at 30° C. for 10 min before initiating the reaction with ^33P-ATP. After 20 min of reaction, the reactions were quenched with 150 μl of 10% trichloroacetic acid (TCA) containing 20 mM Na3PO4. The quenched samples were then transferred to a 96-well filter plate (Whatman, UNI-Filter GF/F Glass Fiber Filter, cat no. 7700-3310) installed on a filter plate vacuum manifold. Filter plates were washed four times with 10% TCA containing 20 mM Na3PO4 and then 4 times with methanol. 200 μl of scintillation fluid was then added to each well. The plates were sealed and the amount of radioactivity associated with the filters was quantified on a TopCount scintillation counter. The radioactivity incorporated was plotted as a function of the inhibitor concentration. The data was fitted to a competitive inhibition kinetics model to get the Ki for the compound. The ADP produced from ATP by the human recombinant Src kinase-catalyzed phosphorylation of poly Glu-Tyr substrate was quanitified using a coupled enzyme assay (Fox et al (1998) Protein Sci 7, 2249). In this assay one molecule of NADH is oxidised to NAD for every molecule of ADP produced in the kinase reaction. The disappearance of NADH can be conveniently followed at 340 nm. […] In a typical assay, all the reaction components with the exception of ATP were pre-mixed and aliquoted into assay plate wells. Inhibitors dissolved in DMSO were added to the wells to give a final DMSO concentration of 2.5%. […] The absorbance change at 340 nm with time, the rate of the reaction, was monitored on a molecular devices plate reader. The data of rate as a function of the inhibitor concentration was fitted to compettive inhibition kinetics model to get the Ki for the compound.

[3] = molecular target: T3, GSK-3β (AA 1-420) (Homo sapiens, UniProt P49841); assay: Ki determination for the inhibition of GSK-3 (coupled enzyme system); format: biochemical; conditions: 20 μM ATP, 300 μM peptide, 20 nM GSK-3β, 30° C
T3 construct: GSK-3β (AA 1-420)
Summary of the method: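 Pyruvate kinase/lactate dehydrogenase-coupled NADH assay with 20 nM GSK-3β (AA 1-420), 20 μM ATP, 300 μM phosphopeptide HSSPHQS(PO3H2)EDEEE in HEPES pH 7.5, 1.5% DMSO, 30 °C. Compound (12 points, 0.002–30 μM) preincubated 10 min before ATP start; Ki derived from 10-min rates versus inhibitor concentration.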

T3 sequence (P49841 whole entry, the tested form may be a part): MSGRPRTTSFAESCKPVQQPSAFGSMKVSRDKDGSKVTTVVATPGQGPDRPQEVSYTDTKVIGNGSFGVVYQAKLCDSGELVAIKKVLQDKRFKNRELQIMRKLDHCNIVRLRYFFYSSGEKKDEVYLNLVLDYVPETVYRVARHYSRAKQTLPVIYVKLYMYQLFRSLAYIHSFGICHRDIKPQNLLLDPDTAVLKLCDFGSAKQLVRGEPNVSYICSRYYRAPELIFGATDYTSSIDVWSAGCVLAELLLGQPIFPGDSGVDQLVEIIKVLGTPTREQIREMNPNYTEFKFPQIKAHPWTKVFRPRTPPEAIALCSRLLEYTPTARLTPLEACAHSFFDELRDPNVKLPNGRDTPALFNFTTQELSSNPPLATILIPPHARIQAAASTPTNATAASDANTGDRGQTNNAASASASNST
T2 sequence (P12931 whole entry): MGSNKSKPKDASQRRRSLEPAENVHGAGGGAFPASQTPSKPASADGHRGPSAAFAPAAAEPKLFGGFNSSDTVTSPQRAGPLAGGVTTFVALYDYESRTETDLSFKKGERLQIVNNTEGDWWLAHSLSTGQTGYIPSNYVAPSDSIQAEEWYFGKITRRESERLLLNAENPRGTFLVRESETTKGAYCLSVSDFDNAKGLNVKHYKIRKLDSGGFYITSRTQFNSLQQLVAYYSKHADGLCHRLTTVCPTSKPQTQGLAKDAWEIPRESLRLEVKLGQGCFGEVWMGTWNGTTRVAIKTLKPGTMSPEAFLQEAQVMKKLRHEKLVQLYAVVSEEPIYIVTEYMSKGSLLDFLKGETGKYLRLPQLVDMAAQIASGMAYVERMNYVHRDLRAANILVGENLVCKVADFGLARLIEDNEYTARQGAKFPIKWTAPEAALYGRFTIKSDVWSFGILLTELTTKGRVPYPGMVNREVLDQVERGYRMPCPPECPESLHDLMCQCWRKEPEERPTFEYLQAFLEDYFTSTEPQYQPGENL

pKi [1]	pKi ([2]; read-out: Ki value for SRC)	melting point [°C]	pKi ([2]; read-out: Ki value on SRC)	pKi [3]	SMILES
4.70 to 6.00	5.22 to 6.00	205 to 207			NCCCc1cc(Nc2nc(-c3ccccc3)nc3ccccc23)[nH]n1 [III-79, [5-(3-Aminoprop-1-yl)-2H-pyrazol-3-yl]-(2-phenyl-quinazolin-4-yl)-amine]
> 7.00		164 to 165	> 7.00	> 7.00	OCCCc1cc(Nc2nc(-c3ccccc3)nc3ccccc23)[nH]n1 [III-76, [5-(3-Hydroxyprop-1-yl)-2H-pyrazol-3-yl]-(2-phenyl-quinazolin-4-yl)-amine]
> 7.00		229 to 231	> 7.00	> 7.00	CCSc1ccc(-c2nc(Nc3cc(C)n[nH]3)c3ccccc3n2)cc1 [III-39, [2-(4-Ethylsulfanylphenyl)-quinazolin-4-yl]-(5-methyl-2H-pyrazol-3-yl)-amine]
> 7.00			> 7.00	> 7.00	Cc1cc(Nc2nc(-c3ccc(-c4ccccc4)cc3)nc3ccccc23)[nH]n1 [III-47, (2-Biphenyl-4-yl-quinazolin-4-yl)-(5-methyl-2H-pyrazol-3-yl)-amine]
> 7.00			> 7.00	> 7.00	Clc1ccc(-c2nc(Nc3cc(C4CC4)n[nH]3)c3ccccc3n2)cc1 [III-42, [2-(4-Chlorophenyl)-quinazolin-4-yl]-(5-cyclopropyl-2H-pyrazol-3-yl)-amine]
> 7.00		> 300	> 7.00	> 7.00	Cc1cc(Nc2nc(-c3ccc(Cl)cc3)nc3ccccc23)[nH]n1 [III-35, [2-(4-Chlorophenyl)-quinazolin-4-yl]-(5-methyl-2H-pyrazol-3-yl)-amine]
> 7.00		263	> 7.00	> 7.00	Cc1cc(Nc2nc(-c3ccc(C#N)cc3)nc3ccccc23)[nH]n1 [III-37, [2-(4-Cyanophenyl)-quinazolin-4-yl]-(5-methyl-2H-pyrazol-3-yl)-amine]
> 7.00			> 7.00	> 7.00	C#Cc1ccc(-c2nc(Nc3cc(C)n[nH]3)c3ccccc3n2)cc1 [III-48, [2-(4-Ethynylphenyl)-quinazolin-4-yl]-(5-methyl-2H-pyrazol-3-yl)-amine]
> 7.00			> 7.00		Cc1cc(Nc2nc(-c3ccc(I)cc3)nc3ccccc23)[nH]n1 [III-32, [2-(4-Iodophenyl)-quinazolin-4-yl]-(5-methyl-2H-pyrazol-3-yl)-amine]
6.00 to 7.00		271 to 273		> 7.00	COC(=O)c1cc(Nc2nc(-c3ccccc3)nc3ccccc23)[nH]n1 [III-73, (5-Methoxycarbonyl-2H-pyrazol-3-yl)-(2-phenyl-quinazolin-4-yl)-amine]
> 7.00		123		6.00 to 7.00	Cc1cc(Nc2nc(N3CCC(O)CC3)nc3ccccc23)[nH]n1 [III-114, [2-(4-Hydroxypiperidin-1-yl)-quinazolin-4-yl]-(5-methyl-2H-pyrazol-3-yl)-amine]
> 7.00		204 to 205	> 7.00	> 7.00	CCCc1cc(Nc2nc(-c3ccccc3)nc3ccccc23)[nH]n1 [III-66, (2-Phenyl-quinazolin-4-yl)-(5-propyl-2H-pyrazol-3-yl)-amine]
6.00 to 7.00		105 to 107		6.00 to 7.00	Cc1cc(Nc2nc(N3CCN(C)CC3)nc3ccccc23)[nH]n1 [III-107, [2-(4-Methylpiperazin-1-yl)-quinazolin-4-yl]-(5-methyl-2H-pyrazol-3-yl)-amine]
> 7.00		> 300		6.00 to 7.00	Cc1cc(Nc2nc(-c3ccc(C(C)(C)C)cc3)nc3ccccc23)[nH]n1 [III-41, [2-(4-tert-Butylphenyl)-quinazolin-4-yl]-(5-methyl-2H-pyrazol-3-yl)-amine]
6.00 to 7.00		285 to 286		6.00 to 7.00	c1ccc2c(Nc3ccn[nH]3)nc(-c3ccncc3)nc2c1 [III-64, (2H-Pyrazol-3-yl)-(2-pyridin-4-yl-quinazolin-4-yl)-amine]
6.00 to 7.00		190 to 191		> 7.00	COCc1cc(Nc2nc(-c3ccccc3)nc3ccccc23)[nH]n1 [III-75, (5-Methoxymethyl-2H-pyrazol-3-yl)-(2-phenyl-quinazolin-4-yl)-amine]
6.00 to 7.00		207 to 209		6.00 to 7.00	c1ccc(-c2cc(Nc3nc(-c4ccccc4)nc4ccccc34)[nH]n2)cc1 [III-71, (5-Phenyl-2H-pyrazol-3-yl)-(2-phenyl-quinazolin-4-yl)-amine]
> 7.00		237		> 7.00	c1ccc2c(c1)CN(c1nc(Nc3cc(C4CC4)n[nH]3)c3ccccc3n1)C2 [III-116, (5-Cyclopropyl-2H-pyrazol-3-yl)-[2-(1,3-dihydro-isoindol-2-yl)-quinazolin-4-yl]-amine]
4.70 to 6.00		266 to 267		6.00 to 7.00	c1ccc(-c2nc(Nc3ncn[nH]3)c3ccccc3n2)cc1 [IX-154, (2-Phenyl-quinazolin-4-yl)-(2H-[1,2,4]triazol-3-yl)-amine]
4.70 to 6.00		189		4.70 to 6.00	Brc1cn[nH]c1Nc1nc(-c2ccccc2)nc2ccccc12 [III-101, (4-Bromo-2H-pyrazol-3-yl)-(2-phenyl-quinazolin-4-yl)-amine]
> 7.00		231 to 232		> 7.00	Cc1cc(Nc2nc(-c3cccc(Oc4ccccc4)c3)nc3ccccc23)[nH]n1 [III-60, (5-Methyl-2H-pyrazol-3-yl)-[2-(3-phenoxyphenyl)-quinazolin-4-yl]-amine]
> 7.00		150 to 153		> 7.00	c1ccc2c(c1)CCN2c1nc(Nc2cc(C3CC3)n[nH]2)c2ccccc2n1 [III-119, (5-Cyclopropyl-2H-pyrazol-3-yl)-[2-(2,3-dihydro-indol-1-yl)-quinazolin-4-yl]-amine]
> 7.00		148 to 150		> 7.00	Cc1cc(Nc2nc(N3CCC(C)CC3)nc3ccccc23)[nH]n1 [III-106, [2-(4-Methylpiperidin-1-yl)-quinazolin-4-yl]-(5-methyl-2H-pyrazol-3-yl)-amine]
> 7.00			> 7.00	6.00 to 7.00	Cc1cc(Nc2nc(-c3ccc(N(C)C)cc3)nc3ccccc23)[nH]n1 [III-44, [2-(4-Dimethylaminophenyl)-quinazolin-4-yl]-(5-methyl-2H-pyrazol-3-yl)-amine]
> 7.00		193 to 195		> 7.00	c1ccc(Oc2cccc(-c3nc(Nc4cc(C5CC5)n[nH]4)c4ccccc4n3)c2)cc1 [III-61, (5-Cyclopropyl-2H-pyrazol-3-yl)-[2-(3-phenoxyphenyl)-quinazolin-4-yl]-amine]

SMILES	pKi [1]	pKi ([2]; read-out: Ki value for SRC)	melting point [°C]	pKi ([2]; read-out: Ki value on SRC)	pKi [3]
Cc1cc(Nc2nc(-c3ccccc3)nc3ccccc23)[nH]n1 [III-31, (5-Methyl-2H-pyrazol-3-yl)-(2-phenyl-quinazolin-4-yl)-amine]	> 7.00			> 7.00	> 7.00
